Results published in patent publication US20100070184A1, “METHOD FOR D[…] HIV TO PROTEASE INHIBITOR TREATMENT” (MONOGRAM BIOSCIENCES, INC., priority 2006, published 2010).

System: HIV-1 from the patient plasma sample
Test: PHENOSENSE HIV phenotypic assay, tipranavir IC50 fold change vs NL4-3 reference strain
Format: cell-based
Details: for MEAN tipranavir FC / MEDIAN tipranavir FC: 1411 patient samples
Procedure: In one embodiment, the phenotypic analysis is performed using PHENOSENSE™ (ViroLogic Inc., South San Francisco, Calif.). See Petropoulos et al., 2000, Antimicrob. Agents Chemother. 44:920-928; U.S. Pat. Nos. 5,837,464 and 6,242,187. PHENOSENSE™ is a phenotypic assay that achieves the benefits of phenotypic testing and overcomes the drawbacks of previous assays. Because the assay has been automated, PHENOSENSE™ offers higher throughput under controlled conditions. The result is an assay that accurately defines the susceptibility profile of a patient's HIV isolates to all currently available antiretroviral drugs, and delivers results directly to the physician within about 10 to about 15 days of sample receipt. PHENOSENSE™ is accurate and can obtain results with only one round of viral replication, thereby avoiding selection of subpopulations of virus. The results are quantitative, measuring varying degrees of drug susceptibility, and sensitive—the test can be performed on blood specimens with a viral load of about 500 copies/mL and can detect minority populations of some drug-resistant virus at concentrations of 10% or less of total viral population. Furthermore, the results are reproducible and can vary by less than about 1.4-2.5 fold, depending on the drug, in about 95% of the assays performed.
A resistance test vector (“RTV”) can then be constructed by incorporating the amplified viral gene sequences into a replication defective viral vector by using any method known in the art of incorporating gene sequences into a vector. In one embodiment, restrictions enzymes and conventional cloning methods are used. See Maniatis et al., 1989, Molecular Cloning: A Laboratory Manual, Cold Spring Harbor Laboratory, NY and Ausubel et al., 1989, Current Protocols in Molecular Biology, Greene Publishing Associates and Wiley Interscience, NY. In some embodiments, ApaI and PinAI restriction enzymes are used. Preferably, the replication defective viral vector is the indicator gene viral vector (“IGVV”). In some embodiments, the viral vector contains a means for detecting replication of the RTV. Preferably, the viral vector contains a luciferase expression cassette.
The assay can be performed by first co-transfecting host cells with RTV DNA and a plasmid that expresses the envelope proteins of another retrovirus, for example, amphotropic murine leukemia virus (MLV). Following transfection, virus particles can be harvested and used to infect fresh target cells. The completion of a single round of viral replication can be detected by the means for detecting replication contained in the vector. In one embodiment, the completion of a single round of viral replication results in the production of luciferase. Serial concentrations of anti-viral agents can be added at either the transfection step or the infection step.
Susceptibility to the anti-viral agent can be measured by comparing the replication of the vector in the presence and absence of the anti-viral agent. For example, susceptibility to the anti-viral agent can be measured by comparing the luciferase activity in the presence and absence of the anti-viral agent. Susceptible viruses would produce low levels of luciferase activity in the presence of anti-viral agents, whereas viruses with reduced susceptibility would produce higher levels of luciferase activity.
The phenotypic assay was conducted using the PHENOSENSE™ (Monogram Biosciences, Inc, South San Francisco, Calif.) HIV assay (Petropoulos et al., 2000, Antimicrob. Agents Chemother. 44:920-928; U.S. Pat. Nos. 5,837,464 and 6,242,187, and International Patent Application No. PCT/US06/05512). Plasma samples were collected from HIV-1-infected patients. IC50 values for tipranavir were obtained for the HIV-1 from the patient sample. This was compared to the IC50 for tipranavir against the NL4-3 (GenBank Accession No. AF324493) reference viral strain. […]

[1] = Kohlbrenner TPV mutation score 0
[2] = Kohlbrenner TPV mutation score 0, 4492 samples
[3] = Kohlbrenner TPV mutation score 1
[4] = Kohlbrenner TPV mutation score 1, 4492 samples
[5] = Kohlbrenner TPV mutation score 2
[6] = Kohlbrenner TPV mutation score 2, 4492 samples
[7] = Kohlbrenner TPV mutation score 3
[8] = Kohlbrenner TPV mutation score 3, 4492 samples
[9] = Kohlbrenner TPV mutation score 4
[10] = Kohlbrenner TPV mutation score 4, 4492 samples
[11] = Kohlbrenner TPV mutation score 5
[12] = Kohlbrenner TPV mutation score 5, 4492 samples
[13] = Kohlbrenner TPV mutation score 6
[14] = Kohlbrenner TPV mutation score 6, 4492 samples
[15] = Kohlbrenner TPV mutation score 7
[16] = Kohlbrenner TPV mutation score 7, 4492 samples
[17] = Kohlbrenner TPV mutation score 8-9
[18] = Kohlbrenner TPV mutation score 8, 4492 samples
[19] = Kohlbrenner TPV mutation score 9, 4492 samples
[20] = adjusted mutation score 3, training data with gag (n = 1916)
[21] = adjusted mutation score 3, validation data with gag (n = 1916)
[22] = adjusted mutation score 3.5, training data with gag (n = 1916)
[23] = adjusted mutation score 3.5, validation data with gag (n = 1916)
[24] = adjusted mutation score 4, training data with gag (n = 1916)
[25] = adjusted mutation score 4, validation data with gag (n = 1916)
[26] = adjusted mutation score 4.5, training data with gag (n = 1916)
[27] = adjusted mutation score 4.5, validation data with gag (n = 1916)
[28] = adjusted mutation score 5, training data with gag (n = 1916)
[29] = adjusted mutation score 5, validation data with gag (n = 1916)
[30] = adjusted mutation score 5.5, training data with gag (n = 1916)
[31] = adjusted mutation score 5.5, validation data with gag (n = 1916)
[32] = adjusted mutation score 6, training data with gag (n = 1916)
[33] = adjusted mutation score 6, validation data with gag (n = 1916)
[34] = adjusted mutation score 6.5, training data with gag (n = 1916)
[35] = adjusted mutation score 6.5, validation data with gag (n = 1916)
[36] = adjusted mutation score <3, training data with gag (n = 1916)
[37] = adjusted mutation score <3, validation data with gag (n = 1916)
[38] = adjusted mutation score >=7, training data with gag (n = 1916)
[39] = adjusted mutation score >=7, validation data with gag (n = 1916)
[40] = base mutation score 0, validation data (n = 2246)
[41] = base mutation score 1, validation data (n = 2246)
[42] = base mutation score 2, validation data (n = 2246)
[43] = base mutation score 3, validation data (n = 2246)
[44] = base mutation score 4, validation data (n = 2246)
[45] = base mutation score 5, validation data (n = 2246)
[46] = base mutation score 6, validation data (n = 2246)
[47] = base mutation score 7, validation data (n = 2246)
[48] = base mutation score 8, validation data (n = 2246)
[49] = base mutation score 9, validation data (n = 2246)
[50] = samples with 3 TPV mutations (Kohlbrenner score), 4492 samples

SMILES: CCC[C@@]1(CCc2ccccc2)CC(O)=C([C@H](CC)c2cccc(NS(=O)(=O)c3ccc(C(F)(F)F)cn3)c2)C(=O)O1 [TPV, tipranavir]
- MEAN tipranavir FC [1]: 0.8
- MEDIAN tipranavir FC [1]: 0.7
- Mean FC [2]: 0.8
- Median FC [2]: 0.7
- MEAN tipranavir FC [3]: 1.0
- MEDIAN tipranavir FC [3]: 0.8
- Mean FC [4]: 1.1
- Median FC [4]: 0.9
- MEAN tipranavir FC [5]: 1.5
- MEDIAN tipranavir FC [5]: 1.1
- Mean FC [6]: 1.6
- Median FC [6]: 1.1
- MEAN tipranavir FC [7]: 3.1
- MEDIAN tipranavir FC [7]: 1.6
- Mean FC [8]: 3.1
- Median FC [8]: 1.7
- MEAN tipranavir FC [9]: 6.1
- MEDIAN tipranavir FC [9]: 3.0
- Mean FC [10]: 5.8
- Median FC [10]: 2.9
- MEAN tipranavir FC [11]: 11
- MEDIAN tipranavir FC [11]: 5.7
- Mean FC [12]: 10
- Median FC [12]: 5.5
- MEAN tipranavir FC [13]: 16
- MEDIAN tipranavir FC [13]: 8.8
- Mean FC [14]: 17
- Median FC [14]: 10.7
- MEAN tipranavir FC [15]: 32
- MEDIAN tipranavir FC [15]: 12
- Mean FC [16]: 24
- Median FC [16]: 16
- MEAN tipranavir FC [17]: 44
- MEDIAN tipranavir FC [17]: 24
- Mean FC [18]: 30
- Median FC [18]: 31
- Mean FC [19]: 42
- Median FC [19]: 53
- mean TPV FC [20]: 2.3
- median TPV FC [20]: 1.5
- mean TPV FC [21]: 1.8
- median TPV FC [21]: 1.4
- mean TPV FC [22]: 3.2
- median TPV FC [22]: 1.5
- mean TPV FC [23]: 2.3
- median TPV FC [23]: 1.5
- mean TPV FC [24]: 2.5
- median TPV FC [24]: 2.0
- mean TPV FC [25]: 2.6
- median TPV FC [25]: 2.0
- mean TPV FC [26]: 3.1
- median TPV FC [26]: 2.2
- mean TPV FC [27]: 3.5
- median TPV FC [27]: 2.4
- mean TPV FC [28]: 4.0
- median TPV FC [28]: 2.8
- mean TPV FC [29]: 4.4
- median TPV FC [29]: 2.8
- mean TPV FC [30]: 5.1
- median TPV FC [30]: 2.4
- mean TPV FC [31]: 5.2
- median TPV FC [31]: 3.2
- mean TPV FC [32]: 7.2
- median TPV FC [32]: 4.9
- mean TPV FC [33]: 8.6
- median TPV FC [33]: 4.5
- mean TPV FC [34]: 10.0
- median TPV FC [34]: 6.3
- mean TPV FC [35]: 12.6
- median TPV FC [35]: 7.4
- mean TPV FC [36]: 1.1
- median TPV FC [36]: 0.9
- mean TPV FC [37]: 1.1
- median TPV FC [37]: 0.9
- mean TPV FC [38]: 19.7
- median TPV FC [38]: 13.4
- mean TPV FC [39]: 20.1
- median TPV FC [39]: 12.5
- mean TPV FC [40]: 0.8
- median TPV FC [40]: 0.7
- mean TPV FC [41]: 1.1
- median TPV FC [41]: 0.9
- mean TPV FC [42]: 1.7
- median TPV FC [42]: 1.2
- mean TPV FC [43]: 3.4
- median TPV FC [43]: 1.8
- mean TPV FC [44]: 6.4
- median TPV FC [44]: 3.2
- mean TPV FC [45]: 10.7
- median TPV FC [45]: 5.7
- mean TPV FC [46]: 18
- median TPV FC [46]: 11.7
- mean TPV FC [47]: 24
- median TPV FC [47]: 19
- mean TPV FC [48]: 31
- median TPV FC [48]: 33
- mean TPV FC [49]: 41
- median TPV FC [49]: 41
- samples with TPV FC greater than 2-fold [50]: 44%
- samples with TPV FC greater than 4-fold [50]: 19%
